# Measurements as given in patent publication US4434290A, “Pyrido (4,3-B) carbazoles substituted in the 1 position by a polyamine chain” (priority 1978, dated 1984).
# Assays:
# [1] = system: Friend's virus (VFA); assay: Anemia inducing Friend's virus, measurement of survival time (Table XVIII); format: in vivo, mice; conditions: 15 mg/kg; for Death interval / Mean survival time / ILS %: D+1
# Text: (§1) The following experiments related to the treatment of mice inoculated by the virus of Friend's leukemia.
# (§2) In these experiments DBA2, male mice, aged from 2 to 3 months, of weight around 20 g, were used.
# (§3) An anemia inducing strain of Friend's virus (VFA) maintained for several years in the laboratory was used. The viral stock was constituted by an acellular supernatant liquor obtained by the centrifugation of a ground product of leukemic spleens, carried out in an 0.5 M PBS-saccharose solution. The assay of the stock was done in vivo by the method described by JASMIN et al [J. Nat. Cancer Inst. 1974,53, 469-474]. The measurement is expressed in SD50 (50% spleen enlarging dose).
# In another series of tests, the mortality of the mice, in which the Friend's virus was injected (VFA) by the intraperitoneal route (dilution 1/800) and the death intervalwere determined, the mean survival time and the percentage of increased life span for the compound 27 according to the invention inoculated on day D+1 at the dose of 15 mg/kg were calculated.
# [2] = system: virus of Friend's leukemia (VFA); assay: Friend's leukemia, measurement of splenomegaly (Table XVII); format: in vivo, DBA2 male mice; conditions: for Mean weight of the spleen: 10 mg/kg (0.2 mg/mouse), day +15; for Mean weight of the spleen / Number of leukemic mice: D + 1; for Number of leukemic mice: 10 mg/kg, spleen >250 mg
# Text: as §1, §2, §3
# The Friend virus was injected in the mouse by the intraperitoneal route. […] The spleens were removed and then weighed individually.
# [3] = system: leukemia L1210; assay: Leukemia L1210 in vivo, effect of the day of inoculation (Table XIII); parameters: species or system mice; conditions: 15 mg/kg; for Death interval / ILS % / Mean survival time: 10^5 cells; for Surviving mice: groups of 6 mice
# Description: The properties were determined by the curative action inoculated experimental leukemia L1210. This leukemia was maintained on B6 D2 Fl (C 57 Bl/6×DBA/2) Fl mice in the proportion of 6 or 10 mice per experimental batch. The compounds to be tested were injected by the intraperitoneal route one or several days after inoculation of the cells (1 injection only). The death interval was determined, the first figure of the Table indicating the date of the first mouse death and the second the date of the last mouse death. The mean survival time was also measured (MST). A characteristic value is the percentage of increased life span (ILS %).
# S^c =survival of control animals.
# As in the above test the death interval was determined, the mean survival time (MST) was measured and the percentage of increased life span (ILS %) was calculated.
# [4] = VFA 1/800, % of leukemias = 99.8
# [5] = VFA 1/800, % of leukemias = 100%
smiles,measurement,setting,value
CCN(CC)CCCNc1nccc2c(C)c3[nH]c4ccc(OC)cc4c3c(C)c12 [Compound 27],Death interval,[1]; [4],20-64
same,Mean survival time,[1]; [4],42.2
same,ILS %,"[1]; VFA 1/800, % of leukemias = 99.8, on the surviving mice",40%
same,Survive,"[1]; VFA 1/800, % of leukemias = 99.8, group of 10 mice",0
same,Death interval,[1]; [5],48-72
same,ILS %,[1]; [5],143.85%
same,Mean survival time,[1]; [5],59.5
same,protective power on Friend's leukemia,"[2]; mouse, in vivo",has a protective power on Friend's leukemia
same,Mean weight of the spleen,[2]; virus dilution 1/800,183 mg
same,Number of leukemic mice,[2]; virus dilution 1/800,2/10
same,Mean weight of the spleen,[2]; virus dilution 1/1600,199 mg
same,Number of leukemic mice,[2]; virus dilution 1/1600,0/5
same,Mean weight of the spleen,[2]; virus dilution 1/3200,220 mg
same,Number of leukemic mice,[2]; virus dilution 1/3200,1/5
same,activity by day of inoculation,[3],more active one day after inoculation of the cells
same,Death interval,[3]; D+1,15-29
same,ILS %,[3]; D+1,82.6%
same,Mean survival time,[3]; D+1,21
same,Death interval,[3]; D+2,15-35
same,ILS %,[3]; D+2,88.7%
same,Mean survival time,[3]; D+2,21.7
same,Death interval,[3]; D+3,13-25
same,ILS %,[3]; D+3,56.5%
same,Mean survival time,[3]; D+3,18
same,Death interval,[3]; D+4,14-20
same,ILS %,[3]; D+4,39.1%
same,Mean survival time,[3]; D+4,16
same,Death interval,[3]; Do(+3h),16-25
same,ILS %,[3]; Do(+3h),80%
same,Mean survival time,[3]; Do(+3h),20.7
same,Surviving mice,[3]; D+1,2 mice
same,Surviving mice,[3]; D+2,0 mice
same,Surviving mice,[3]; D+3,0 mice
same,Surviving mice,[3]; D+4,0 mice
same,Surviving mice,[3]; Do(+3h),0 mice
